Assay results: article PMC2113781 (The Journal of Cell Biology, 1985)
“And” between values parts separate entries of the source, which are not always exact repeats. Identical values can stand only once.

test system: muscarinic binding sites; parameters: species or system chick

SMILES	RH, two-sites model	RL, two-sites model	nH, phenomenological cooperativity model (Hill coefficient)
CC(=O)OCC[N+](C)(C)C [Acetylcholine, acetylcholine]	15.3 pmol/L and 20.9 pmol/L	13.8 pmol/L and 19.4 pmol/L	0.41 and 0.39
CN1[C@@H]2CC[C@H]1C[C@@H](OC(=O)C(CO)c1ccccc1)C2 (some centres unmarked) [Atropine, atropine]			0.79
CC(C[N+](C)(C)C)OC(N)=O (centres unmarked) [Bethanechol, bethanechol]	9.1 pmol/L	19.9 pmol/L	0.65
C[N+](C)(C)CCOC(N)=O [Carbachol, carbachol]	14.6 pmol/L	18.4 pmol/L	0.41
O=C1CC[C@@](c2ccccc2)(C2CCN(Cc3ccccc3)CC2)C(=O)N1 [Dexetimide, dexetimide]			0.63
O=C1CC[C@](c2ccccc2)(C2CCN(Cc3ccccc3)CC2)C(=O)N1 [Levetimide, levetimide]			0.76
O=C1CCCN1CC#CCN1CCCC1 [Oxotremorine, oxotremorine]			0.95
CC[C@@H]1C(=O)OC[C@@H]1Cc1cncn1C [Pilocarpine, pilocarpine]			0.68
CN1CCN(CC(=O)N2c3ccccc3C(=O)Nc3cccnc32)CC1 [Pirenzepine, pirenzepine]			1.31

test system: muscarinic cholinergic receptor; type: cell-based, chick

SMILES	Effect relative to acetylcholine [%]	agonistic effect on Ca2+ mobilization	type of antagonism
CC(=O)OCC[N+](C)(C)C [Acetylcholine, acetylcholine]	100	full agonists	
CC(C[N+](C)(C)C)OC(N)=O (centres unmarked) [Bethanechol, bethanechol]	23	partial agonist	reversible competitive antagonists
C[N+](C)(C)CCOC(N)=O [Carbachol, carbachol]	92	full agonists	
O=C1CC[C@@](c2ccccc2)(C2CCN(Cc3ccccc3)CC2)C(=O)N1 [Dexetimide, dexetimide]			irreversible competitive antagonists
O=C1CC[C@](c2ccccc2)(C2CCN(Cc3ccccc3)CC2)C(=O)N1 [Levetimide, levetimide]			reversible competitive antagonists
O=C1CCCN1CC#CCN1CCCC1 [Oxotremorine, oxotremorine]		No reaction	reversible competitive antagonists
CC[C@@H]1C(=O)OC[C@@H]1Cc1cncn1C [Pilocarpine, pilocarpine]		No reaction	reversible competitive antagonists
CN1CCN(CC(=O)N2c3ccccc3C(=O)Nc3cccnc32)CC1 [Pirenzepine, pirenzepine]			reversible competitive antagonists
